Measured values: patent US9328083B2, “2-aminated methylene or 2-esterified methylene tanshinone derivatives, and preparation method and application thereof” (HANGZHOU BENSHENG PHARMACEUTICAL CO., LTD., priority 2011, dated 2016)
In brackets after ≈: the same amount, converted by molar mass.

Tests used:
[1] = system: NB4 (acute promyelocytic leukemia, AML); assay: MTT growth inhibition of leukemia cells, 72 h; format: cell-based, human; details: Homo sapiens, NB4, 72 h; for IC50: read-out: IC50; for IC90: read-out: IC90
Excerpt: (§1) Leukemia cell lines: leukemia cell lines: K562/adr (drug-resistant, chronic myeloid leukemia, CML), NB4 (acute promyelocytic leukemia, AML), Kasumi-1 (acute myeloid leukemia M2 type, AML-M2), and Jurkat (acute lymphoblastic leukemia, ALL), all of which are donated by Cancer Research Institute of Zhejiang University, China; and H9 (acute lymphoblastic leukemia, ALL), which is purchased from China Center for Type Culture Collection (CCTCC).
(§2) The standard sample of tanshinone I (TA) and the 2-aminated methylene or 2-esterified methylene tanshinone I derivatives of the present invention are sufficiently dissolved with dimethylsulfoxide to produce a stock solution of 10 mg/mL, which is refrigerated at 4° C. and stored in dark, and is diluted with a cell culture medium to the desired concentration prior to experimentation.
(§3) Obtaining 6000 well-growing leukemia cells and inoculating them into wells of a 96-well cell culture plate. The culture medium is the RPMI-1640 cell culture medium containing 10% fetal bovine serum. After adding on the second day the 2-aminated methylene or 2-esterified methylene tanshinone I derivatives of different concentrations and mixing uniformly, placing the plate in a carbon dioxide cell incubator (5% CO2) at 37° C. and incubated for 72 hours. Then the viable cell concentration is determined by MTT method.

[2] = system: H9 (acute lymphoblastic leukemia, ALL); assay: MTT growth inhibition of leukemia cells, 72 h; format: cell-based, human; details: for IC50 / IC90: Homo sapiens, H9, 72 h; for IC50: read-out: IC50; for IC90: read-out: IC90
Excerpt: as §1, §2, §3

[3] = system: Kasumi-1 (acute myeloid leukemia M2 type, AML-M2); assay: MTT growth inhibition of leukemia cells, 72 h; format: cell-based, human; details: Homo sapiens, Kasumi-1, 72 h; for IC50: read-out: IC50; for IC90: read-out: IC90
Excerpt: as §1, §2, §3

[4] = system: K562/adr (drug-resistant, chronic myeloid leukemia, CML); assay: MTT growth inhibition of leukemia cells, 72 h; format: cell-based, human; details: Homo sapiens, K562/Adr; for IC50: read-out: IC50; for IC90: read-out: IC90
Excerpt: as §1, §2, §3

[5] = system: Jurkat (acute lymphoblastic leukemia, ALL); assay: MTT growth inhibition of leukemia cells, 72 h; format: cell-based, human; details: Homo sapiens, 72 h; for IC50: read-out: IC50; for IC90: read-out: IC90
Excerpt: as §1, §2, §3

[6] = system: RPMI8226 (multiple myeloma); assay: MTT growth inhibition of multiple myeloma cells, 72 h; format: cell-based, human; details: Homo sapiens, RPMI 8226, 72 h; for IC50: read-out: IC50; for IC90: read-out: IC90
Method: Myeloma cell lines: RPMI8226 (multiple myeloma), purchased from Fuxiang Bio-tech Co. Ltd., Shanghai, China.
as §2
as §3, with “myeloma” for “leukemia”, “cells as above” for “cells”, “1640” for “RPMI-1640”, “adding” for “adding on the second day”

MG63 (osteosarcoma) = assay: MTT growth inhibition of human solid tumor cells, 72 h; format: cell-based; details: Homo sapiens, MG-63, 72 h; for IC50: read-out: IC50; for IC90: read-out: IC90
Method: (§4) Hep-2 (laryngeal carcinoma), A549 (human lung cancer), CaES-17 (esophageal cancer cell), PC-3 (prostate cancer), CNE (nasopharyngeal carcinoma cell), and SK-OV-3 (ovarian cancer cell), all of which are purchased from China Center For Type Culture Collection; RKO (human colon adenocarcinoma cell), MGC 803 (human gastric cancer cell), MG63 (osteosarcoma) and U87 MG (malignant glioma cell), all of which are purchased from Fuxiang Bio-tech Co. Ltd., Shanghai, China; PANC-1 (pancreatic cancer), Hep G2 (human liver cancer cell), Becap37 (human breast cancer cell) and Hela (human cervical cancer cell), all of which are donated by Cancer Research Institute of Zhejiang University, China.
as §2
(§5) Obtaining 4000 well-growing human solid tumor cells and inoculating them into wells of a 96-well cell culture plate. The culture medium is DMEM High Glucose cell culture medium containing 10% fetal bovine serum. The plate is placed in a carbon dioxide cell incubator (5% CO2) at 37° C. and incubated for 24 hours. After adding the 2-aminated methylene or 2-esterified methylene tanshinone I derivatives of different concentrations and mixing uniformly, the plate is placed in a carbon dioxide cell incubator (5% CO2) at 37° C. and incubated for 72 hours. Then the viable cell concentration is determined by the MTT method.

A549 (human lung cancer) = assay: as above; format: cell-based; details: Homo sapiens, A549, 72 h; for IC50: read-out: IC50; for IC90: read-out: IC90
Method: as §4, §2, §5

[7] = system: Hep G2 (human liver cancer cell); assay: as above; format: cell-based; details: Homo sapiens, HepG2, Hep G2, 72 h; for IC50: read-out: IC50; for IC90: read-out: IC90
Method: as §4, §2, §5

[8] = system: PANC-1 (pancreatic cancer); assay: as above; format: cell-based; details: Homo sapiens, PANC-1, 72 h; for IC50: read-out: IC50; for IC90: read-out: IC90
Method: as §4, §2, §5

[9] = system: Hela (human cervical cancer cell); assay: as above; format: cell-based; details: for IC50 / IC90: Homo sapiens, HeLa, 72 h; for IC50: read-out: IC50; for IC90: read-out: IC90
Method: as §4, §2, §5

[10] = system: CaES-17 (esophageal cancer cell); assay: as above; format: cell-based; details: Homo sapiens, CaEs17, CaEs-17, 72 h; for IC50: read-out: IC50; for IC90: read-out: IC90
Method: as §4, §2, §5

[11] = system: MGC 803 (human gastric cancer cell); assay: as above; format: cell-based; details: Homo sapiens, MGC-803, 72 h; for IC50: read-out: IC50; for IC90: read-out: IC90
Method: as §4, §2, §5

[12] = system: Becap37 (human breast cancer cell); assay: as above; format: cell-based; details: Homo sapiens, Becap-37, 72 h; for IC50: read-out: IC50; for IC90: read-out: IC90
Method: as §4, §2, §5

[13] = system: U87 MG (malignant glioma cell); assay: as above; format: cell-based; details: Homo sapiens, U-87 MG, U87-MG, 72 h; for IC50: read-out: IC50; for IC90: read-out: IC90
Method: as §4, §2, §5

[14] = system: Hep-2 (laryngeal carcinoma); assay: as above; format: cell-based; details: for IC50 / IC90: Homo sapiens, HEp-2, 72 h; for IC50: read-out: IC50; for IC90: read-out: IC90
Method: as §4, §2, §5

[15] = system: RKO (human colon adenocarcinoma cell); assay: as above; format: cell-based; details: Homo sapiens; for IC50: read-out: IC50; for IC90: read-out: IC90
Method: as §4, §2, §5

[16] = system: SK-OV-3 (ovarian cancer cell); assay: as above; format: cell-based; details: Homo sapiens, SK-OV-3, 72 h; for IC50: read-out: IC50; for IC90: read-out: IC90
Method: as §4, §2, §5

[17] = system: CNE (nasopharyngeal carcinoma cell); assay: as above; format: cell-based; details: Homo sapiens; for IC50: read-out: IC50; for IC90: read-out: IC90
Method: as §4, §2, §5

PC-3 (prostate cancer) = assay: as above; format: cell-based; details: Homo sapiens, PC-3, 72 h; for IC50: read-out: IC50; for IC90: read-out: IC90
Method: as §4, §2, §5

CCC(=O)OCc1oc2c(c1C)C(=O)C(=O)c1c-2ccc2c(C)cccc12 [BS-TA-A03]
IC50 [1]: 1.93 µg/mL (≈ 5.33 µM)
IC90 [1]: 9.65 µg/mL (≈ 26.6 µM)
IC50 [2]: 6.4 µg/mL (≈ 17.7 µM)
IC90 [2]: > 16 µg/mL
IC50 [3]: 2.35 µg/mL (≈ 6.48 µM)
IC90 [3]: 7.79 µg/mL (≈ 21.5 µM)
IC50 [4]: 2.3 µg/mL (≈ 6.35 µM)
IC90 [4]: 6.61 µg/mL (≈ 18.2 µM)
IC50 [5]: 5.54 µg/mL (≈ 15.3 µM)
IC90 [5]: 17.1 µg/mL (≈ 47 µM)
IC50 [6]: 8.4 µg/mL (≈ 23.2 µM)
IC90 [6]: > 16 µg/mL
IC50 (MG63 (osteosarcoma)): 4.86 µg/mL (≈ 13.4 µM)
IC90 (MG63 (osteosarcoma)): > 16 µg/mL
IC50 (A549 (human lung cancer)): 10.6 µg/mL (≈ 29.1 µM)
IC90 (A549 (human lung cancer)): 24.2 µg/mL (≈ 66.9 µM)
IC50 [7]: 10.6 µg/mL (≈ 29.2 µM)
IC90 [7]: > 16 µg/mL
IC50 [8]: 3.08 µg/mL (≈ 8.5 µM)
IC90 [8]: 13.3 µg/mL (≈ 36.8 µM)
IC50 [9]: 5 µg/mL (≈ 13.8 µM)
IC90 [9]: > 16 µg/mL
IC50 [10]: 15.5 µg/mL (≈ 42.7 µM)
IC90 [10]: > 16 µg/mL
IC50 [11]: 9.22 µg/mL (≈ 25.4 µM)
IC90 [11]: 23.2 µg/mL (≈ 64.2 µM)
IC50 [12]: 14.2 µg/mL (≈ 39.3 µM)
IC90 [12]: > 16 µg/mL
IC50 [13]: > 16 µg/mL
IC90 [13]: > 16 µg/mL
IC50 [14]: 6.82 µg/mL (≈ 18.8 µM)
IC90 [14]: > 16 µg/mL
IC50 [15]: 2.77 µg/mL (≈ 7.64 µM)
IC90 [15]: > 16 µg/mL
IC50 [16]: > 16 µg/mL
IC90 [16]: > 16 µg/mL
IC50 [17]: 8.5 µg/mL (≈ 23.5 µM)
IC90 [17]: > 16 µg/mL
IC50 (PC-3 (prostate cancer)): 14.4 µg/mL (≈ 39.8 µM)
IC90 (PC-3 (prostate cancer)): > 16 µg/mL

Cc1c(CN(C)CCOC(=O)[C@@H](N)C(C)C)oc2c1C(=O)C(=O)c1c-2ccc2c(C)cccc12 [BS-TA-71]
IC50 [1]: 0.15 µg/mL (≈ 0.324 µM)
IC90 [1]: 0.41 µg/mL (≈ 0.886 µM)
improvement of anti-H9 activity as compared with tanshinone I ([2]; H9, vs tanshinone I): 28 fold
IC50 [2]: 0.125 µg/mL (≈ 0.27 µM)
IC90 [2]: 0.49 µg/mL (≈ 1.06 µM)
IC50 [3]: 0.13 µg/mL (≈ 0.281 µM)
IC90 [3]: 0.39 µg/mL (≈ 0.843 µM)
IC50 [4]: 0.47 µg/mL (≈ 1.02 µM)
IC90 [4]: 0.76 µg/mL (≈ 1.64 µM)
IC50 [5]: 0.37 µg/mL (≈ 0.8 µM)
IC90 [5]: 0.94 µg/mL (≈ 2.03 µM)
IC50 [6]: 0.25 µg/mL (≈ 0.54 µM)
IC90 [6]: 0.83 µg/mL (≈ 1.79 µM)
IC50 (MG63 (osteosarcoma)): 0.61 µg/mL (≈ 1.32 µM)
IC90 (MG63 (osteosarcoma)): 1.79 µg/mL (≈ 3.87 µM)
IC50 (A549 (human lung cancer)): 0.8 µg/mL (≈ 1.73 µM)
IC90 (A549 (human lung cancer)): 2.82 µg/mL (≈ 6.1 µM)
IC50 [7]: 0.66 µg/mL (≈ 1.43 µM)
IC90 [7]: 1.85 µg/mL (≈ 4 µM)
IC50 [8]: 0.4 µg/mL (≈ 0.865 µM)
IC90 [8]: 4.73 µg/mL (≈ 10.2 µM)
improvement of anti-Hela activity as compared with tanshinone I ([9]; Hela, vs tanshinone I): more than 8 fold
IC50 [9]: 0.47 µg/mL (≈ 1.02 µM)
IC90 [9]: 1.75 µg/mL (≈ 3.78 µM)
IC50 [10]: 0.52 µg/mL (≈ 1.12 µM)
IC90 [10]: 0.59 µg/mL (≈ 1.28 µM)
IC50 [11]: 0.41 µg/mL (≈ 0.886 µM)
IC90 [11]: 2.24 µg/mL (≈ 4.84 µM)
IC50 [12]: 0.4 µg/mL (≈ 0.865 µM)
IC90 [12]: 0.9 µg/mL (≈ 1.95 µM)
IC50 [13]: 0.66 µg/mL (≈ 1.43 µM)
IC90 [13]: 1.55 µg/mL (≈ 3.35 µM)
improvement of anti-Hep-2 activity as compared with tanshinone I ([14]; Hep-2, vs tanshinone I): more than 4 fold
IC50 [14]: 0.62 µg/mL (≈ 1.34 µM)
IC90 [14]: 1.76 µg/mL (≈ 3.81 µM)
IC50 [15]: 0.14 µg/mL (≈ 0.303 µM)
IC90 [15]: 1.28 µg/mL (≈ 2.77 µM)
IC50 [16]: 1.66 µg/mL (≈ 3.59 µM)
IC90 [16]: 3.39 µg/mL (≈ 7.33 µM)
IC50 [17]: 0.63 µg/mL (≈ 1.36 µM)
IC90 [17]: 1.43 µg/mL (≈ 3.09 µM)
IC50 (PC-3 (prostate cancer)): 0.92 µg/mL (≈ 1.99 µM)
IC90 (PC-3 (prostate cancer)): 3.74 µg/mL (≈ 8.09 µM)
